According to US20080075796A1, “Compositions and Methods for Controlling Insects” (TyraTech, Inc., priority 2003, published 2008):

Tests used:
[1] = tested on: Drosophila melanogaster tyramine receptor (TyrR), SEQ ID NO: 2; test: Inhibition of 3H-tyramine binding to membranes of Schneider cells expressing TyrR; conditions: compared with tyramine, FIG. 4
Method: Phage DNA is purified from this library using a liquid culture lysate.
In order to determine the pharmacological profile of tyramine receptor (TyrR), the ability of a number of putative Drosophila neurotransmitters to displace ^3H-tyramine (^3H-TA) binding from membranes expressing tyramine receptor is tested.

tyramine receptor (TyrR) [2] = target: T1, tyramine receptor (TyrR) (Drosophila melanogaster, UniProt P22270); test: Saturation binding of ^3H-tyramine to membranes from Schneider cells expressing tyramine receptor; conditions: saturation binding, membranes expressing TyrR
T1 sequence (P22270 27-601): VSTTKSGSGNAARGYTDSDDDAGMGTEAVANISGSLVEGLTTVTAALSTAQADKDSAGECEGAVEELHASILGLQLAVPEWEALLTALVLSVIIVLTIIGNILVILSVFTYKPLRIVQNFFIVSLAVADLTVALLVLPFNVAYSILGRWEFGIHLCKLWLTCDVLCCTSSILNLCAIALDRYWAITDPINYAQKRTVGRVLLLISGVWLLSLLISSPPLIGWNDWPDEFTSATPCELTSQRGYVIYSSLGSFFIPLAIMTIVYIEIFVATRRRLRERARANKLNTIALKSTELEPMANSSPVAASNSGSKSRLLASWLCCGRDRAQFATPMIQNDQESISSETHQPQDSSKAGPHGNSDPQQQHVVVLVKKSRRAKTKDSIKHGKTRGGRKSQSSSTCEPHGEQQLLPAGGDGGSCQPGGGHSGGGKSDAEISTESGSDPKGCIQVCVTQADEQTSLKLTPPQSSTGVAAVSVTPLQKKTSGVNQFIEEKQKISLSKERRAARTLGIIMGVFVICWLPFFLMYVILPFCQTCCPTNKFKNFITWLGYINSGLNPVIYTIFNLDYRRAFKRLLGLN
Method: A preliminary study to determine the optimum concentration of membrane protein for receptor binding activity is performed. […] After about 1 hr incubation at room temperature, reactions are terminated by filtration through GF/C filters (VWR), which have been previously soaked in about 0.3% polyethyleneimine (PEI). The filters are washed one time with about 4 ml ice cold Iris buffer and air dried before the retained radioactivity is measured using LSC. Binding data is analyzed by curve fitting (GraphPad software, Prism).
Receptor binding reactions are incubated for about 1 hr at room temperature (RT) in restricted light. Reactions are terminated by filtration through OF/C filters (VWR), which have been previously soaked in about 0.3% polyethyleneimine (PEI). The filters are washed one time with about 4 ml ice cold Tris buffer and air dried before retained radioactivity is measured using LSC. Binding data is analyzed by curve fitting (GraphPad software, Prism).

Or83b receptor [3] = target: T2, Or83b receptor (Drosophila melanogaster, UniProt Q9VNB5); test: cAMP production in Schneider cells expressing Or83b receptor; format: cell-based
T2 construct: His (from vector pAc5.1/V5-His B) (C); expressed in transfected cells
T2 sequence (Q9VNB5 1-486): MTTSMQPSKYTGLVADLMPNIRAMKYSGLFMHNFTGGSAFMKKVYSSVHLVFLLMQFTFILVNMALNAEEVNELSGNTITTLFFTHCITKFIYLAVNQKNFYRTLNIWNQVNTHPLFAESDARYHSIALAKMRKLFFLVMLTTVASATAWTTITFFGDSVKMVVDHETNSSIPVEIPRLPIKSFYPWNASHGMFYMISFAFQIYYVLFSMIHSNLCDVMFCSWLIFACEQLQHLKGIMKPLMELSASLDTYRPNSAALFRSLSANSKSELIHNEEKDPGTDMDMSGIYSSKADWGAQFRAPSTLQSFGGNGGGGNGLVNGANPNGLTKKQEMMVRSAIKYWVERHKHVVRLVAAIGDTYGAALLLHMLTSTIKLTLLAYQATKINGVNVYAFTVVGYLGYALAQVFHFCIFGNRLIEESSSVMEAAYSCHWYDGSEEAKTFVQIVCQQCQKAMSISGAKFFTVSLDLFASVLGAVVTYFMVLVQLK
Method: (§1) Cells are grown on dishes and the media changed the day before the treatment. When cells are approximately 95% confluent, media is aspirated and the cells are washed one time with about 5 mL of about 27° C. insect saline (170 mM NaCl, 6.0 mM KCl, 2.0 mM NaHCO3, 17.0 mM glucose, 6.0 mM NaH2PO4, 2.0 mM CaCl2, 4.0 mM MgCl2; pH 7.0). About 20 mL of insect saline is added, and cells are harvested by gentle scraping. An aliquot of the cells is counted by hemocytometer, and the cells are then centrifuged for about 5 minutes at about 1000 RPM. Cells are resuspended to give about 3×10^6 cells per mL. IBMX is added to about 200 μM. Then about 1 mL of cell suspension is aliquoted for treatment. Forskolin (cAMP inducing agent), tyramine or different composition candidates are added, and the cells are incubated at about 27° C. for about 10 minutes.
(§2) Treated cells are centrifuged at about 13000 g for about 10 seconds. The solution is aspirated and about 1 mL of about −20° C. 70% ethanol is added. The cell pellet is disrupted by vortexing and the samples placed at about −20° C. overnight. Following the ethanol extraction, cellular debris is pelleted by centrifugation at about 13000 g for about 5 minutes. The supernatant is transferred to a tube and lyophilized to dryness in a rotary speed-vac. The resulting extract is resuspended in about 100 μL TE and used for the cAMP assay.
(§3) The cAMP assay is based on competition binding between endogenous cAMP and ^3H-cAMP to a cAMP binding protein. The ^3H-cAMP Biotrak system (Amersham Biosciences) is used for this assay as per the manufacturer's instructions. Briefly, about 50 μL of the cellular extract is incubated with about 50 μL ^3H-cAMP and about 100 μL cAMP binding protein in an ice bath for about 2-4 hours. Charcoal (about 100 μL) is then added and the solution centrifuged for about 3 minutes at about 4° C. About 200 μL of the reaction mixture is removed and levels of ^3H-cAMP are determined by scintillation counting. Levels of endogenous cAMP from the cells are calculated using a standard curve with cold cAMP ranging from about 0 to 16 pmol per reaction.
To ensure that the cAMP cascade in this cell model is functionally active, forskolin, a cAMP inducer, is used as standard agent. Cyclic-AMP levels are measured using the cAMP assay described above in Example 2. […]
To determine the effect of various plant essential oils on intracellular cAMP production and the tyramine-dependent changes of cAMP in cells expressing one of the olfactory receptors, cells from each cell model are treated with LFO (about 50 μg/ml) and BSO (about 50 μg/ml) in the presence and absence of tyramine (about 20 μM) and forskolin (about 10 μM) and intracellular cAMP is thereafter quantified using the cAMP assay described above in Example 2.

Or43a receptor [4] = target: T3, Or43a receptor (Drosophila melanogaster, UniProt P81917, L154V); test: cAMP production in Schneider cells expressing Or43a receptor; format: cell-based; conditions: agent alone; tyramine about 20 μM, LFO, BSO about 50 μg/ml, forskolin about 10 μM
T3 construct: His (from vector pAc5.1/V5-His B) (C); expressed in transfected cells
Method: as §1, with “When cells are approximately 95% confluent, media is aspirated and the cells are washed one time with about 5 mL of about 27° C. insect saline (170 mM NaCl, 6.0 mM KCl, 2.0 mM NaHCO3, 17.0 mM glucose, 6.0 mM NaH2PO4, 2.0 mM CaCl2, 4.0 mM MgCl2; pH 7.0).” left out
as §2
as §3, with “counting.” for “counting. Levels of endogenous cAMP from the cells are calculated using a standard curve with cold cAMP ranging from about 0 to 16 pmol per reaction.”
As such, the cells expressing olfactory receptors have a functionally active cAMP cascade.

tyramine receptor (TyrR) [5] = target: T1, tyramine receptor (TyrR); test: cAMP levels in Schneider cells expressing tyramine receptor; format: cell-based; design: oligonucleotides that are used to amplify the open reading frame of the Drosophila tyramine receptor (TyrR); expressed in transfected cells; conditions: forskolin about 10 μM, transfected cells, vs solvent (ethanol)
Method: as §1
as §2, with “The resulting extract is resuspended in about 100 μL TE and used for the cAMP assay.” left out
The cAMP assay is based on competition binding between endogenous cAMP and ^3H-cAMP to a cAMP binding protein. […] About 200 μL of the reaction mixture is removed and levels of ^3H-cAMP are determined by scintillation counting. Levels of endogenous cAMP from the cells are calculated using a standard curve with cold cAMP ranging from about 0 to 16 pmol per reaction.
To examine test chemical-dependent coupling of the tyramine receptor, pAcB-TyrR is stably expressed in Schneider cells. Transfected and untransfected cells are treated with tyramine (about 10 μM), LFO (about 25 μg/ml) and BSO (about 25 μg/ml) in the presence and absence of forskolin (FK) (about 10 μM). cAMP production is measured using the ^3H-cAMP assay kit (Amersham) as described above.

Or43a receptor [6] = target: T3, Or43a receptor; test: Intracellular Ca^2+ mobilization in Schneider cells expressing Or43a receptor; format: cell-based
Method: (§4) Intracellular calcium ion concentrations ([Ca^2+]i) are measured by using the acetoxymethyl (AM) ester of the fluorescent indicator fura-2 (Enan, et al., Biochem. Pharmacol vol 51, 447-454). In this study, cells expressing tyramine receptor are grown under standard conditions. A cell suspension is prepared in assay buffer (140 mM NaCL, 10 mM HEPES, 10 mM glucose, 5 mM KCl, 1 mM CaCl2, 1 mM MgCl2) and cell number adjusted to about 2×10^6 cells per ml. Briefly, about 1.0 ml cell suspension (about 2×10^6 cells) is incubated with about 5 μM Fura 2/AM for about 30 min at about 28° C. After incubation, the cells are pelleted at about 3700 rpm for about 10 sec at room temperature and then resuspended in about 1.5 ml assay buffer. [Ca^2+]i changes are analyzed in spectrofluorometer in the presence and absence of test chemicals. Excitation wave lengths are about 340 nm (generated by Ca^2+-bound fura-2) and about 380 nm (corresponding to Ca^2+-free fura-2). The fluorescence intensity is monitored at an emission wave length of about 510 nm. No absorbance of fluorescence artifacts are observed with any of the compounds used. The ratio of about 340/380 nm is calculated and plotted as a function of time.
(§5) Intracellular Ca^2+ levels are measured using the method described above in Example 3.
(§6) Changes in intracellular Ca^2+ levels are calculated based on the difference between the 340/380 fluorescence ratios before and after approximately 150 seconds of the treatment.

Or83b receptor [7] = target: T2, Or83b receptor; test: Intracellular Ca^2+ mobilization in Schneider cells expressing Or83b receptor; format: cell-based; conditions: ionomycin about 2 μM, tyramine about 10 μM
Method: as §4, §5

control Schneider cells = test: Intracellular Ca2+ mobilization in control Schneider cells; format: cell-based, Drosophila; conditions: FIG. 22
Method: as §4, §6

T3 sequence (P81917 whole entry L154V): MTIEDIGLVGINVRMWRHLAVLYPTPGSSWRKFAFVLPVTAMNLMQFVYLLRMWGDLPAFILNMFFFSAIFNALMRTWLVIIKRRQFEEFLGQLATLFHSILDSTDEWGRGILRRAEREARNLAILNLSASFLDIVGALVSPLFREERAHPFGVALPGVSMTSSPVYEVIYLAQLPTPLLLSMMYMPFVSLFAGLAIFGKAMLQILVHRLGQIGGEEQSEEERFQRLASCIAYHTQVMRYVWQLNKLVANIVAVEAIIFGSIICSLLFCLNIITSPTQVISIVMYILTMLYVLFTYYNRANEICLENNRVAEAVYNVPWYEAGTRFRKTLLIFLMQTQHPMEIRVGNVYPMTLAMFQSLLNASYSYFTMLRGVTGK

Structure (SMILES): NCCc1ccc(O)c(O)c1 [Dopamine]
- displacing 3H-tyramine binding [1]: less efficient than tyramine

Structure (SMILES): NCC(O)c1ccc(O)cc1 (stereo not shown) [Octopamine]
- displacing 3H-tyramine binding [1]: less efficient than tyramine

Structure (SMILES): NCCc1c[nH]c2ccc(O)cc12 [Serotonin]
- displacing 3H-tyramine binding [1]: less efficient than tyramine

Structure (SMILES): NCCc1ccc(O)cc1 [^3H-tyramine]
- Bmax (tyramine receptor (TyrR) [2]): about 0.679 pmol/mg protein
- Kd (tyramine receptor (TyrR) [2]): ~1.26 nM

Structure (SMILES): C=C[C@@]1(C)CC(=O)[C@]2(O)[C@@]3(C)[C@@H](O)CCC(C)(C)[C@@H]3[C@H](O)[C@H](OC(C)=O)[C@@]2(C)O1 [forskolin]
- increase in the production of cAMP (Or83b receptor [3]; forskolin about 10 μM (Example 11)): ~3000 fold
- increase from basal cAMP levels (Or83b receptor [3]; forskolin about 10 μM, about 10 min, room temperature): ~13 fold
- change in cAMP levels (Or43a receptor [4]): increase in cAMP levels
- increase in cAMP levels over basal level (tyramine receptor (TyrR) [5]): ~19 fold

Structure (SMILES): C[C@H](CCC(=O)O)C[C@H](C)C[C@H](C)C(=O)/C=C(\O)[C@H](C)C[C@H](C)C/C=C/[C@@H](C)[C@@H](O)[C@@H](C)[C@@H](O)C[C@@H]1CC[C@@](C)([C@H]2CC[C@@](C)([C@@H](C)O)O2)O1 [ionomycin, reference compound]
- change in intracellular Ca^2+ levels (340/380 fluorescence ratio) (Or43a receptor [6]; before vs approximately 150 seconds after treatment): only negligibly
- increase in intracellular calcium (Or43a receptor [6]; ionomycin about 2 μM, tyramine about 10 μM): ~7 fold
- increase in intracellular calcium (Or83b receptor [7]): Approximately 3.8 fold

Structure (SMILES): C[C@H](CCC(=O)O)C[C@H](C)C[C@H](C)C(=O)/C=C(\O)[C@H](C)C[C@H](C)C/C=C/[C@@H](C)[C@@H](O)[C@@H](C)[C@@H](O)C[C@@H]1CC[C@@](C)([C@H]2CC[C@@](C)([C@@H](C)O)O2)O1 [ionomycin]
- mobilization of Ca2+ in control cells (control Schneider cells): induce mobilization of Ca^2+
